“And” between values parts separate entries of the source, which are not always exact repeats. Equal values may be shown once.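 48-hour exposure; five concentrations; linearly interpolated endpoints. The concentration for 50% growth inhibition is given as GI50. TGI marks complete inhibition of growth.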
Tests used:
Assay in all cases: NCI tumour cell line growth inhibition, 48 h
[1] = system: DU-145 prostate
[2] = system: LOX IMVI melanoma
[3] = system: MCF7 breast
[4] = system: NCI-H23 lung
[5] = system: NCI-H522 lung
[6] = system: OVCAR-8 ovarian
[7] = system: SK-OV-3 ovarian
[8] = system: SN12C renal
[9] = system: SNB-19 CNS
[10] = system: UACC-62 melanoma

Compound: CCCCCCCCCCN=C(c1ccc(N(C)C)cc1)c1ccc(N(C)C)cc1
- GI50 [1]: 2420 nM
- TGI [1]: > 83 µM
- GI50 [2]: 601 nM
- TGI [2]: > 96.1 µM
- GI50 [3]: 356 nM
- TGI [3]: > 100 µM
- GI50 [4]: 1580 nM
- TGI [4]: > 75.4 µM
- GI50 [5]: 0.352 µM
- TGI [5]: 5.94 µM
- GI50 [6]: 2090 nM
- TGI [6]: > 59.5 µM
- GI50 [7]: 1440 nM
- TGI [7]: 40.3 µM
- GI50 [8]: 830 nM
- TGI [8]: 53.4 µM
- GI50 [9]: 1.06 µM
- TGI [9]: > 76 µM
- GI50 [10]: 508 nM
- TGI [10]: > 38.4 µM

Compound: Cc1ccc2c(c1)Sc1ccc(N=NN(C)C)cc1N2C
- TGI [1]: > 100 µM
- TGI [2]: > 100 µM
- TGI [3]: > 100 µM
- TGI [4]: > 100 µM
- TGI [5]: > 100 µM
- TGI [6]: > 100 µM
- TGI [7]: > 100 µM
- TGI [8]: > 100 µM
- TGI [9]: > 100 µM
- TGI [10]: > 100 µM

Compound: Cc1ccccc1Nc1nc2c(s1)C(=O)c1ccccc1C2=O
- TGI [1]: 20 µM
- TGI [2]: 5.27 µM
- TGI [3]: 4.36 µM
- TGI [4]: 14.1 µM
- TGI [5]: 7.52 µM
- TGI [6]: 9.05 µM
- TGI [7]: 38 µM
- TGI [8]: 6.32 µM
- TGI [9]: 13.2 µM
- TGI [10]: 10.3 µM

Compound: O=S1(=O)NCCCN1CCNc1nccc(-c2c(-c3cccc(O)c3)nc3sccn23)n1
- GI50 [1]: 15900 nM
- TGI [1]: > 100 µM
- GI50 [2]: 2460 nM
- TGI [2]: 24 µM
- GI50 [3]: 29500 nM
- TGI [3]: > 100 µM
- GI50 [4]: 29000 nM
- TGI [4]: > 100 µM
- GI50 [5]: 14.6 µM
- TGI [5]: 80.7 µM
- GI50 [6]: 2860 nM
- TGI [6]: > 100 µM
- GI50 [7]: 5930 nM
- TGI [7]: 63.8 µM
- GI50 [8]: 10200 nM
- TGI [8]: > 100 µM
- GI50 [9]: > 92.5 µM
- TGI [9]: > 100 µM
- GI50 [10]: 87.3 nM
- TGI [10]: 5.66 µM

Compound: O=S(=O)(CCOCc1ccc(-c2ccc3ncnc(Nc4ccc(OCc5cccc(F)c5)c(Cl)c4)c3c2)o1)c1ccccc1
- GI50 [1]: > 25000 nM
- TGI [1]: > 25 µM
- GI50 [2]: > 25000 nM
- TGI [2]: > 25 µM
- GI50 [3]: > 25000 nM
- TGI [3]: > 25 µM
- GI50 [4]: > 25000 nM
- TGI [4]: > 25 µM
- GI50 [5]: > 25 µM
- TGI [5]: > 25 µM
- GI50 [6]: > 25000 nM
- TGI [6]: > 25 µM
- GI50 [7]: 143 nM
- TGI [7]: > 25 µM
- GI50 [8]: > 25000 nM
- TGI [8]: > 25 µM
- GI50 [9]: > 25 µM
- TGI [9]: > 25 µM
- GI50 [10]: > 25000 nM
- TGI [10]: > 25 µM

Compound: CC1CCCc2c1nn(C(=O)/C=C(\N)c1ccccc1)c2N (stereo not given)
- GI50 [1]: 14500 nM
- TGI [1]: > 100 µM
- GI50 [2]: 6290 nM
- TGI [2]: > 100 µM
- GI50 [3]: 7260 nM
- TGI [3]: > 100 µM
- GI50 [4]: 5500 nM
- TGI [4]: 92.9 µM
- GI50 [5]: 13.6 µM
- TGI [5]: 61.7 µM
- GI50 [6]: 8500 nM
- TGI [6]: > 100 µM
- GI50 [7]: 14500 nM
- TGI [7]: > 100 µM
- GI50 [8]: 8130 nM
- TGI [8]: > 100 µM
- GI50 [9]: 25.2 µM
- TGI [9]: > 100 µM
- GI50 [10]: 9450 nM
- TGI [10]: 41.5 µM

Compound: O=C1C(Cl)=C(Nc2ccccc2)C(=O)c2ccccc21
- GI50 [1]: 9340 nM
- TGI [1]: 22 µM
- GI50 [2]: 856 nM
- TGI [2]: 2.86 µM
- GI50 [3]: 1500 nM
- TGI [3]: 3.53 µM
- GI50 [4]: 1920 nM
- TGI [4]: 4.25 µM
- GI50 [5]: 1.66 µM
- TGI [5]: 3.77 µM
- GI50 [6]: 1710 nM
- TGI [6]: 3.2 µM
- GI50 [7]: 5430 nM
- TGI [7]: 18.7 µM
- GI50 [8]: 1820 nM
- TGI [8]: 3.59 µM
- GI50 [9]: 2.22 µM
- TGI [9]: 5.07 µM
- GI50 [10]: 1720 nM
- TGI [10]: 3.3 µM

Compound: Cc1nc(Nc2n[nH]c3c2CN(C(=O)N[C@H](CN(C)C)c2ccccc2)C3(C)C)c2sccc2n1
- GI50 [1]: 156 nM and 317 nM
- TGI [1]: > 10 µM and 15.9 µM
- GI50 [2]: 8.7 nM and < 11.9 nM
- TGI [2]: 1.38 µM and 2.16 µM
- GI50 [3]: 5.23 nM and < 10 nM
- TGI [3]: > 5.5 µM and 6.46 µM
- GI50 [4]: 13.6 nM and 20.7 nM
- TGI [4]: 2.8 µM and 4.42 µM
- GI50 [5]: < 0.0168 µM and 0.0398 µM
- TGI [5]: 2.28 µM and 2.74 µM
- GI50 [6]: 83.9 nM and 306 nM
- TGI [6]: > 10 µM and 15.6 µM
- GI50 [7]: 317 nM and 205 nM
- TGI [7]: > 5.94 µM and 14.7 µM
- GI50 [8]: 19.3 nM and < 17.6 nM
- TGI [8]: > 4.66 µM and 3.84 µM
- GI50 [9]: 0.0575 µM and 0.0546 µM
- TGI [9]: > 6.54 µM and 3.75 µM
- GI50 [10]: 4.87 nM and < 10 nM
- TGI [10]: 0.154 µM

Compound: CC(=O)NNc1nc(C)c(C(=O)NNC(=O)C(=O)Nc2nc3ccc([N+](=O)[O-])cc3s2)s1
- TGI [1]: > 100 µM
- TGI [2]: > 100 µM
- TGI [3]: > 100 µM
- TGI [4]: > 100 µM
- TGI [5]: 61.4 µM
- TGI [6]: > 100 µM
- TGI [7]: > 100 µM
- TGI [8]: > 100 µM
- TGI [9]: > 100 µM
- TGI [10]: > 100 µM

Compound: CCN(CC)CCNC(=O)c1c(C)[nH]c(/C=C2\C(=O)Nc3ccc(F)cc32)c1C
- GI50 [1]: 3730 nM and 2830 nM and 2190 nM
- TGI [1]: > 10 µM and 20 µM and 15.5 µM
- GI50 [2]: 1290 nM and 2290 nM and 1320 nM
- TGI [2]: 2.92 µM and 5.01 µM and 3 µM
- GI50 [3]: 1930 nM and 2230 nM and 2050 nM
- TGI [3]: > 10 µM and 4.88 µM and 11.9 µM
- GI50 [4]: 3880 nM and 2600 nM and 2390 nM
- TGI [4]: > 10 µM and 9.21 µM and 14.5 µM
- GI50 [5]: 6.2 µM and 3.52 µM and 2.73 µM
- TGI [5]: > 10 µM and 6.92 µM and 6.1 µM
- GI50 [6]: 9050 nM and 2810 nM and 6090 nM
- TGI [6]: > 10 µM and 6.95 µM and 23.1 µM
- GI50 [7]: 2440 nM and 2260 nM and 3510 nM
- TGI [7]: > 10 µM and 5.43 µM and 19.6 µM
- GI50 [8]: 1950 nM and 1240 nM and 2230 nM
- TGI [8]: > 10 µM and 20 µM and 16.2 µM
- GI50 [9]: > 10 µM and 5.36 µM and 11.4 µM
- TGI [9]: > 10 µM and 16.3 µM and 25.6 µM
- GI50 [10]: > 10000 nM and 3260 nM and 4120 nM
- TGI [10]: > 10 µM and 6.98 µM and 10.9 µM

Compound: CCC(=C(c1ccc(OCCCN(C)C)cc1)c1ccc(OCCCN(C)C)cc1)c1ccc(Cl)cc1
- GI50 [1]: 1010 nM
- TGI [1]: 3.16 µM
- GI50 [2]: 287 nM
- TGI [2]: 0.541 µM
- GI50 [3]: 216 nM
- TGI [3]: 0.524 µM
- GI50 [4]: 2500 nM
- TGI [4]: 4.98 µM
- GI50 [5]: 0.48 µM
- TGI [5]: 1.69 µM
- GI50 [6]: 933 nM
- TGI [6]: 3.37 µM
- GI50 [7]: 2810 nM
- TGI [7]: 5.36 µM
- GI50 [8]: 2180 nM
- TGI [8]: 4.55 µM
- GI50 [9]: 0.921 µM
- TGI [9]: 3.05 µM
- GI50 [10]: 345 nM
- TGI [10]: 0.782 µM

Compound: C=CCSc1nc2ccccc2c(=O)n1Cc1ccco1
- TGI [1]: > 100 µM
- TGI [2]: > 100 µM
- TGI [3]: > 100 µM
- TGI [4]: > 100 µM
- TGI [5]: > 100 µM
- TGI [6]: > 100 µM
- TGI [7]: > 100 µM
- TGI [8]: > 100 µM
- TGI [9]: > 100 µM
- TGI [10]: > 100 µM

Compound: NC(=O)c1cccc(Nc2nccc(Nc3cccc(F)c3)n2)c1
- GI50 [1]: 8100 nM
- TGI [1]: > 25 µM
- GI50 [2]: 7660 nM
- TGI [2]: > 25 µM
- GI50 [3]: 11000 nM
- TGI [3]: > 25 µM
- GI50 [4]: 10600 nM
- TGI [4]: > 25 µM
- GI50 [5]: 5.82 µM
- TGI [5]: > 23.8 µM
- GI50 [6]: 9490 nM
- TGI [6]: > 25 µM
- GI50 [7]: 5850 nM
- TGI [7]: 17.2 µM
- GI50 [8]: 7980 nM
- TGI [8]: > 25 µM
- GI50 [9]: 18.6 µM
- TGI [9]: > 25 µM
- GI50 [10]: 5660 nM
- TGI [10]: 24.6 µM

— PubChem BioAssay (NCI)
